Data on 62 compounds can be found in US9724351B2, “Compounds for the treatment of paramoxyvirus viral infections” (priority 2012, dated 2017).

A value given as a limit tells only on which side of the number the result lay.

The nature of the series: Cytotoxicity Determination. The class given is cell-based. Particulars: human, HEp-2 cells, without addition of virus, CCK-8 readout, bins (Table 4: greater than 100 μM; Table 5: equal to or less than 100 μM and greater than 10 μM), read-out: 50% cytotoxicity concentration (CC50). The method, then:
In order to determine the compound cytotoxicity, in parallel, each of the compounds is applied to duplicate wells in a 384-well cell plate at serial final concentrations starting from 100 μM using ½ stepwise dilutions for 7 points without addition of virus. Incubate the cells at 37° C., 5% CO2 for 5 days. Add 6 μl CCK-8 into each well and incubate in a CO2 incubator at 37° C. for 3-4 hours. Read the plates to obtain the optical densities which are used to calculate 50% cytotoxicity concentration (CC50).

Regarding `CCOc1ccc(C(=O)NCC(=O)Nc2nc3cc(C)ccc3n2CCOC)cc1OC` [Compound 916], the CC50 at 5 days was above 100 µM. With `CN(C)c1ccc(C(=O)NCC(=O)N/N=C/c2csc3ccccc23)cc1` [Compound 237], the CC50 at 5 days was in the range of 10 to 100 µM. As for `COc1ccc(C(=O)NCC(=O)N/N=C(\C)c2c(Br)sc3ccccc23)cc1OC` [Compound 437], the CC50 at 5 days was in the range of 10 to 100 µM. Turning to `COc1ccc(C(=O)NCCc2ccnc(-c3csc4c(F)cccc34)n2)cc1OC` [Compound 1207], the CC50 at 5 days was above 100 µM.

With `COc1ccc(CNCC(=O)N/N=C/c2csc3ccccc23)cc1OC` [Compound 241], the CC50 at 5 days was 10 to 100 µM. For the compound `COc1ccc(C(=O)NCC(=O)c2coc(-c3csc4c(F)cccc34)n2)cc1OC` [Compound 3200], the CC50 at 5 days is above 100 µM. As for `CCOc1ccc(C(=O)NCC(=O)NNC(=O)c2csc3cccnc23)cc1OC` [Compound 902], the CC50 at 5 days fell in the range of 10 to 100 µM.

For `COc1cc(C(=O)NCC(=O)c2ccc(OC)c(-c3ccc(F)c(Cl)c3)n2)ccc1OCCO` [Compound 1603], the CC50 at 5 days was above 100 µM. With `COc1ccc(C(=O)NCC(=O)c2ncc(-c3csc4c(F)cccc34)n2C)cc1OC` [Compound 2204], the CC50 at 5 days was in the range of 10 to 100 µM. As for `COc1ccc(C(=O)N(C)CC(=O)N/N=C(\C)c2csc3ccccc23)cc1OC` [Compound 242], the CC50 at 5 days was above 100 µM.

Take `COc1ccc(C(=O)NN(C)C(=O)c2cccc(-c3csc4c(F)cccc34)n2)cc1OC` [Compound 3102]: the CC50 at 5 days was 10 to 100 µM.

As to `Cc1ccc(/C=N/NC(=O)CNC(=O)c2ccccc2)o1` [Compound 119], the CC50 at 5 days was 10 to 100 µM. With `COc1ccc(C(=O)CCC(=O)c2cccc(-c3csc4c(F)cccc34)n2)cc1OC` [Compound 1339], the CC50 at 5 days was in the range of 10 to 100 µM. In the case of `COc1ccc(C(=O)NCC(=O)c2cnc(-c3csc4c(F)cccc34)n2C)cc1OC` [Compound 2205], the CC50 at 5 days was above 100 µM. In the case of `COc1ccc(C(=O)NCC(=O)N/N=C2\CCc3cc(OC)c(OC)cc32)cc1OC` [Compound 421], the CC50 at 5 days is above 100 µM. Then `COc1cc(C(=O)NCC(=O)c2cccc(-c3csc4c(F)cccc34)n2)ccc1OC1CCN(C)CC1` [Compound 1234], with 10 to 100 µM; and `COc1ccc(C(=O)NCc2nnc(-c3csc4ccccc34)o2)cc1OC` [Compound 4103], with above 100 µM; and `CCOc1ccc(C(=O)NCC(=O)Nc2cc3ccccc3n2C)cc1OC` [Compound 909], with above 100 µM. Take `COc1ccc(C(=O)NCCc2nccc(-c3csc4c(F)cccc34)n2)cc1OC` [Compound 1208]: the CC50 at 5 days is above 100 µM.

As to `COc1ccc(C(=O)NCC(=O)NNCCC(=O)c2csc3ccccc23)cc1OC` [Compound 904], the CC50 at 5 days is above 100 µM. Then `COc1ccc(C(=O)NCC(=O)N/N=C/c2cncc3ccccc23)cc1OC` [Compound 412], with 10 to 100 µM; and `COc1ccc(C(=O)NCC(=O)N/N=C/c2csc3ccccc23)cc1` [Compound 101], with above 100 µM; and `CCOc1ccc(C(=O)NCCNC(=O)N(CCOC)c2csc3c(F)cccc23)cc1OC` [Compound 1000], with above 100 µM. `COc1ccc(C(=O)NCC(=O)Nc2ccc3c(-c4ccccc4)c[nH]c3c2)cc1OC` [Compound 4104]: the CC50 at 5 days was above 100 µM.

For the compound `COc1ccc(C(=O)NCC(=O)NN=C2Cc3ccccc3C2)cc1OC` [Compound 420], the CC50 at 5 days is above 100 µM.

With `COc1ccc(C(=O)NCC(=O)c2nc(-c3csc4c(F)cccc34)n[nH]2)cc1OC` [Compound 860], the CC50 at 5 days is 10 to 100 µM.

`COc1ccc(C(=O)Nc2cn(C)c3ccc(-c4csc5c(F)cccc45)nc3c2=O)cc1OC` [Compound 2901]: the CC50 at 5 days was above 100 µM. In the case of `COc1ccc(C(=O)NCCC(=O)N/N=C(/C)c2csc3ccccc23)cc1OC` [Compound 243] it was above 100 µM. Regarding `COc1cc(C(=O)NCC(=O)N/N=C(\C)c2csc3ccccc23)ccn1` [Compound 473], the CC50 at 5 days is above 100 µM. As to `CCOc1ccc(C(=O)NCC(=O)Nc2nc3ccccc3n2CCOC)cc1OC` [Compound 913], the CC50 at 5 days was above 100 µM. As to `CCOc1ccc(C(=O)NCC(=O)N/N=C(\C)c2csc3cccnc23)cc1OC` [Compound 465], the CC50 at 5 days is 10 to 100 µM. Consider `CCn1cc(-c2csc3c(F)cccc23)nc1C(=O)CNC(=O)c1ccc(OC)c(OC)c1` [Compound 1354], for which the CC50 at 5 days lay in the range of 10 to 100 µM. In the case of `CCOc1ccc(C(=O)NCC(=O)Nc2nc3cc(C(=O)OC)ccc3n2CCOC)cc1OC` [Compound 912] it was 10 to 100 µM; in that of `COc1ccc(C(=O)NCC(=O)N/C=C/c2csc3ccccc23)cc1OC` [Compound 4102], 10 to 100 µM. Regarding `CCOc1ccc(C(=O)NCC(=O)Nc2nc3cc(F)ccc3n2CCOC)cc1OC` [Compound 914], the CC50 at 5 days is above 100 µM. `COc1ccc(C(=O)NC(C)C(=O)c2nc(-c3csc4c(F)cccc34)ccc2O)cc1OC` (centres unmarked) [Compound 1304]: the CC50 at 5 days lay in the range of 10 to 100 µM.

In the case of `COc1ccc(S(=O)(=O)NCC(=O)N/N=C(\C)c2csc3ccccc23)cc1OC` [Compound 240], the CC50 at 5 days fell in the range of 10 to 100 µM.

As to `COc1ccc(C(=O)NCC(=O)N/N=C(\C)c2csc3ccc(Br)cc23)cc1OC` [Compound 432], the CC50 at 5 days lay in the range of 10 to 100 µM. For `COc1ccc2c(c1)/C(=N/NC(=O)CNC(=O)c1ccc(OC)c(OC)c1)CC2` [Compound 424], the CC50 at 5 days is above 100 µM. `COc1ccc(C(=O)NCC(=O)c2nc(-c3csc4c(F)cccc34)co2)cc1OC` [Compound 3201]: the CC50 at 5 days lay in the range of 10 to 100 µM. Regarding `COc1ccc(C(=O)NCC(=O)c2cc(=O)cc(-c3csc4c(F)cccc34)[nH]2)cc1OC` [Compound 1222], the CC50 at 5 days was above 100 µM. In the case of `COc1ccc(C(=O)NCC(=O)N/N=C(\C)c2cnc3ccccc3c2)cc1OC` [Compound 435] it was above 100 µM; in that of `COc1ccc(C(=O)NCC(=O)Nc2cc3ccccc3c(=O)[nH]2)cc1OC` [Compound 907], above 100 µM; in that of `COc1cc(C(=O)NCC(=O)c2cccc(-c3csc4c(F)cccc34)n2)ccc1OC1CCNCC1` [Compound 1231], 10 to 100 µM. Consider `COc1ccc(C(=O)NCC(=O)N/N=C2\CCc3ccccc32)cc1OC` [Compound 425], for which the CC50 at 5 days is above 100 µM. Then `COc1ccc(C(=O)NCC(=O)N/N=C/c2csc(-c3ccccc3)c2)cc1OC` [Compound 487], with 10 to 100 µM; and `COc1ccc(CC(=O)NCC(=O)N/N=C(/C)c2csc3ccccc23)cc1OC` [Compound 472], with 10 to 100 µM; and `COc1ccc(C(=O)NCC(=O)N/N=C(\C)c2csc(-c3ccccc3)c2)cc1OC` [Compound 429], with above 100 µM. As for `COc1ccc(C(=O)NCC(=O)N/N=C(\C)c2nc3ccccc3s2)cc1OC` [Compound 417], the CC50 at 5 days was in the range of 10 to 100 µM. `COc1ccc(C(=O)NCC(=O)N/N=C(\C)c2c(C)[nH]c3ccccc23)cc1OC` [Compound 416]: the CC50 at 5 days lay within 10 to 100 µM. Then `COc1ccc(C(=O)NCC(=O)Nc2nccc3ccccc23)cc1OC` [Compound 906], with above 100 µM. Turning to `COc1ccc(C(=O)NCC(=O)N/N=C(\C)c2csc3c2CCCC3)cc1OC` [Compound 428], the CC50 at 5 days was above 100 µM. With `CCOc1ccc(C(=O)NCC(=O)NCC(=O)c2csc3c(F)cccc23)cc1OC` [Compound 910], the CC50 at 5 days is 10 to 100 µM. For the compound `CC(C)Oc1ccc(C(=O)NCC(=O)N/N=C/c2csc3ccccc23)cc1` [Compound 236], the CC50 at 5 days fell in the range of 10 to 100 µM. Turning to `COc1ccc(C(=O)NCC(=O)NN=C(c2cccs2)c2cccs2)cc1OC` [Compound 431], the CC50 at 5 days is above 100 µM.

On to `COc1ccc(C(=O)NCC(=O)N/N=C(\C)c2cc(-c3ccccc3)sc2C)cc1OC` [Compound 419], for which the CC50 at 5 days fell in the range of 10 to 100 µM. For `COc1ccc(C(=O)NCC(=O)N/N=C(\C)c2cccc3ccccc23)cc1OC` [Compound 433], the CC50 at 5 days fell in the range of 10 to 100 µM. For the compound `CCOc1ccc(C(=O)NCC(=O)NCCc2csc3c(F)cccc23)cc1OC` [Compound 908], the CC50 at 5 days was above 100 µM. For `COc1cc(C(=O)CNC(=O)c2ccc(OC)c(OC)c2)nc(-c2csc3c(F)cccc23)n1` [Compound 1201], the CC50 at 5 days was above 100 µM.

For the compound `COc1ccc(C(=O)NCC(=O)c2cncc(-c3csc4c(F)cccc34)n2)cc1OC` [Compound 1219], the CC50 at 5 days is above 100 µM. Take `COc1cc(C(=O)NCC(=O)c2cccc(-c3csc4c(F)cccc34)n2)ccc1OCCN1CCOCC1` [Compound 1233]: the CC50 at 5 days lay within 10 to 100 µM. As for `CCOc1ccc(C(=O)NCC(=O)Nc2nc3ccc(F)c(F)c3n2CCOC)cc1OC` [Compound 915], the CC50 at 5 days is above 100 µM.
